Test results published in the NIST ThermoML archive (doi:10.1016/j.jct.2006.04.007).

Assay: mn = molality of the nth substance listed, in mol/kg
Details: 350 kPa, Liquid; for apparent molar heat capacity: Extra sensitive DSC

CNC(C)=O [N-methylacetamide] + O
Details | apparent molar heat capacity [J/K/mol] | mass density [kg/m3]
328.15 K, m1 = 0.2002 | – | 985.56
328.15 K, m1 = 0.4 | – | 985.32
328.15 K, m1 = 0.599 | – | 985.18
328.15 K, m1 = 0.8028 | – | 985.04
328.15 K, m1 = 1 | – | 984.85
333.15 K, m1 = 0.015 | 260 | –
333.15 K, m1 = 0.04 | 265.7 | –
333.15 K, m1 = 0.07 | 267 | –
333.15 K, m1 = 0.1001 | 271.2 | –
333.15 K, m1 = 0.2002 | 271 | –
333.15 K, m1 = 0.4 | 267.55 | –
333.15 K, m1 = 0.599 | 274.8 | –
333.15 K, m1 = 0.8028 | 266.47 | –
333.15 K, m1 = 1 | 265.86 | –
338.15 K, m1 = 0.015 | 264 | –
338.15 K, m1 = 0.04 | 266.3 | –
338.15 K, m1 = 0.07 | 269.1 | –
338.15 K, m1 = 0.1001 | 272.8 | –
338.15 K, m1 = 0.2002 | 272.4 | –
338.15 K, m1 = 0.4 | 269.46 | –
338.15 K, m1 = 0.599 | 276.4 | –
338.15 K, m1 = 0.8028 | 268.26 | –
338.15 K, m1 = 1 | 267.6 | –
343.15 K, m1 = 0.015 | 268 | –
343.15 K, m1 = 0.04 | 267.1 | –
343.15 K, m1 = 0.07 | 270.8 | –
343.15 K, m1 = 0.1001 | 274.1 | –
343.15 K, m1 = 0.2002 | 273.7 | –
343.15 K, m1 = 0.4 | 271.09 | –
343.15 K, m1 = 0.599 | 277.9 | –
343.15 K, m1 = 0.8028 | 269.89 | –
343.15 K, m1 = 1 | 269.2 | –
348.15 K, m1 = 0.015 | 271 | 974.89
348.15 K, m1 = 0.04 | 268.3 | 974.87
348.15 K, m1 = 0.07 | 272.5 | 974.87
348.15 K, m1 = 0.1001 | 275.2 | 974.82
348.15 K, m1 = 0.2002 | 274.9 | 974.63
348.15 K, m1 = 0.4 | 272.57 | 974.29
348.15 K, m1 = 0.599 | 279.4 | 974.05
348.15 K, m1 = 0.8028 | 271.43 | 973.79
348.15 K, m1 = 1 | 270.73 | 973.51
353.15 K, m1 = 0.015 | 273 | –
353.15 K, m1 = 0.04 | 269.5 | –
353.15 K, m1 = 0.07 | 274 | –
353.15 K, m1 = 0.1001 | 276.3 | –
353.15 K, m1 = 0.2002 | 276 | –
353.15 K, m1 = 0.4 | 273.95 | –
353.15 K, m1 = 0.599 | 280.7 | –
353.15 K, m1 = 0.8028 | 272.85 | –
353.15 K, m1 = 1 | 272.12 | –
358.15 K, m1 = 0.015 | 274 | 968.67
358.15 K, m1 = 0.04 | 270.2 | 968.65
358.15 K, m1 = 0.07 | 275.5 | 968.63
358.15 K, m1 = 0.1001 | 277.5 | 968.56
358.15 K, m1 = 0.2002 | 277.2 | 968.36
358.15 K, m1 = 0.4 | 275.31 | 967.97
358.15 K, m1 = 0.599 | 281.9 | 967.67
358.15 K, m1 = 0.8028 | 274.18 | 967.36
358.15 K, m1 = 1 | 273.45 | 967.06
363.15 K, m1 = 0.015 | 276 | –
363.15 K, m1 = 0.04 | 270.5 | –
363.15 K, m1 = 0.07 | 277.1 | –
363.15 K, m1 = 0.1001 | 278.7 | –
363.15 K, m1 = 0.2002 | 278.5 | –
363.15 K, m1 = 0.4 | 276.62 | –
363.15 K, m1 = 0.599 | 283.1 | –
363.15 K, m1 = 0.8028 | 275.42 | –
363.15 K, m1 = 1 | 274.69 | –
368.15 K, m1 = 0.015 | 277 | 961.97
368.15 K, m1 = 0.04 | 270.9 | 961.92
368.15 K, m1 = 0.07 | 278.3 | 961.9
368.15 K, m1 = 0.1001 | 279.7 | 961.83
368.15 K, m1 = 0.2002 | 279.5 | 961.62
368.15 K, m1 = 0.4 | 277.76 | 961.19
368.15 K, m1 = 0.599 | 284.1 | 960.81
368.15 K, m1 = 0.8028 | 276.51 | 960.43
368.15 K, m1 = 1 | 275.75 | 960.09
373.15 K, m1 = 0.015 | 277 | –
373.15 K, m1 = 0.04 | 270.8 | –
373.15 K, m1 = 0.07 | 279.3 | –
373.15 K, m1 = 0.1001 | 280.7 | –
373.15 K, m1 = 0.2002 | 280.5 | –
373.15 K, m1 = 0.4 | 278.82 | –
373.15 K, m1 = 0.599 | 285.12 | –
373.15 K, m1 = 0.8028 | 277.53 | –
373.15 K, m1 = 1 | 276.77 | –
378.15 K, m1 = 0.015 | 275 | –
378.15 K, m1 = 0.04 | 270.6 | –
378.15 K, m1 = 0.07 | 280 | –
378.15 K, m1 = 0.1001 | 281.5 | –
378.15 K, m1 = 0.2002 | 281.4 | –
378.15 K, m1 = 0.4 | 279.75 | –
378.15 K, m1 = 0.599 | 286.01 | –
378.15 K, m1 = 0.8028 | 278.43 | –
378.15 K, m1 = 1 | 277.65 | –
383.15 K, m1 = 0.015 | 273 | –
383.15 K, m1 = 0.04 | 270.2 | –
383.15 K, m1 = 0.07 | 280.4 | –
383.15 K, m1 = 0.1001 | 282.2 | –
383.15 K, m1 = 0.2002 | 282.2 | –
383.15 K, m1 = 0.4 | 280.52 | –
383.15 K, m1 = 0.599 | 286.77 | –
383.15 K, m1 = 0.8028 | 279.21 | –
383.15 K, m1 = 1 | 278.41 | –
388.15 K, m1 = 0.015 | 273 | –
388.15 K, m1 = 0.04 | 270.5 | –
388.15 K, m1 = 0.07 | 281.2 | –
388.15 K, m1 = 0.1001 | 282.6 | –
388.15 K, m1 = 0.2002 | 282.8 | –
388.15 K, m1 = 0.4 | 281.15 | –
388.15 K, m1 = 0.599 | 287.45 | –
388.15 K, m1 = 0.8028 | 279.89 | –
388.15 K, m1 = 1 | 279.13 | –
393.15 K, m1 = 0.015 | 278 | –
393.15 K, m1 = 0.04 | 273.2 | –
393.15 K, m1 = 0.07 | 282.4 | –
393.15 K, m1 = 0.1001 | 281.9 | –
393.15 K, m1 = 0.2002 | 282.8 | –
393.15 K, m1 = 0.4 | 281.41 | –
393.15 K, m1 = 0.599 | 287.87 | –
393.15 K, m1 = 0.8028 | 280.37 | –
393.15 K, m1 = 1 | 279.71 | –
